US9132097B2, “Nanoparticles stabilized with nitrophenylboronic acid compositions” (California Institute of Technology, priority 2013, dated 2015)
Like-named read-outs stand apart in the source and are kept apart here.

How the values were obtained:
[1] = Plasma pharmacokinetics of free CPT in mice (comparison); assay type: in vivo; conditions: after 8 h, CPT alone at 10 mg/kg, CD2F1 mice
Procedure: Free CPT injected at 10 mg/kg into CD2F1 mice is shown as comparison. […] (B) Plasma concentration of unconjugated CPT as a function of time.

BT-474 xenograft tumors = tested on: BT-474 xenograft tumors
Procedure: Treatments began on day 1. […] All treatments were freshly prepared and given via intravenous tail vein injection. Injections were standardized at 150 μl per 20 g body weight of mice. […] Tumor sizes were recorded three times a week using caliper measurements (length×width2/2) and health of the animals was continuously monitored. Animals were euthanized when tumor volumes exceeded 1000 mm^3. Six weeks after beginning of the treatment, animals were euthanized by CO2 asphyxiation.

[2] = CPT 8 mg/kg i.v. once per week for 3 weeks, Nbegin 8
[3] = Irinotecan 80 mg/kg i.v. once per week for 3 weeks, Nbegin 8

Compound | Injected dose remaining in circulation [1] | Tumor inhibition compared to control group (BT-474 xenograft tumors; CPT 8 mg/kg i.v. once per week for 3 weeks) | NNTRD (number of non-treatment related death) (BT-474 xenograft tumors; [2]) | NTRD (number of treatment related death) (BT-474 xenograft tumors; [2]) | Nend (number of animals surviving to end of study) (BT-474 xenograft tumors; [2]) | Tumor inhibition compared to control group (BT-474 xenograft tumors; Irinotecan 80 mg/kg i.v. once per week for 3 weeks) | NNTRD (number of non-treatment related death) (BT-474 xenograft tumors; [3]) | NTRD (number of treatment related death) (BT-474 xenograft tumors; [3]) | Nend (number of animals surviving to end of study) (BT-474 xenograft tumors; [3]) | Neuthan (number of animals euthanized due to exceeding tumor size limit of 1000 mm^3) (BT-474 xenograft tumors; [3]) | Nreg to zero (number of animals with tumors regressed to zero at the end of study) (BT-474 xenograft tumors; [3])
CC[C@@]1(O)C(=O)OCc2c1cc1n(c2=O)Cc2cc3ccccc3nc2-1 [CPT, Camptothecin] | 0.01% | no tumor inhibition | 0 | 4 | 8/0 |  |  |  |  |  | 
CCc1c2c(nc3ccc(OC(=O)N4CCC(N5CCCCC5)CC4)cc13)-c1cc3c(c(=O)n1C2)COC(=O)[C@]3(O)CC [Irinotecan] |  |  |  |  |  | non-significant tumor inhibition | 0 | 1 | 8/7 | 0 | 0
